# Assay results: article PMC6211260 (Journal of Enzyme Inhibition and Medicinal Chemistry, 2018)
# What was measured:
# [1] = system: T-47D cell line; test: NCI-60 single-dose screening; format: cell-based; conditions: 10 µM
# Description: (§1) Screening against the cancer cell lines was carried out at the National Cancer Institute (NCI, Bethesda, Maryland, USA) applying the standard protocol of the NCI[22].
# (§2) The final target compounds were submitted to the National Cancer Institute (NCI), Maryland, USA[23]. Thirty-one compounds were selected to be tested over 60 cell lines at single dose 10 µM.
# [2] = system: HT29 colon cancer cell line; test: NCI-60 single-dose screening; format: cell-based; conditions: 10 µM
# Description: as §1, §2
# [3] = system: SR leukaemia cell line; test: NCI-60 single-dose screening; format: cell-based; conditions: 10 µM
# Description: as §1, §2
# [4] = molecular target: T1, ABL1 (T315I) (Homo sapiens, UniProt P00519, T315I); test: In vitro kinase screening (Kinase HotSpot); format: biochemical; conditions: single dose of 10 µM
# T1 construct: purchased Reaction Biology Corp
# From the text: (§3) To investigate the biological target of compound, Reaction Biology Corp. Kinase HotSpotSM service was used adopting standard assay protocol.
# [5] = molecular target: T2, BRAF (Homo sapiens, UniProt P15056); test: In vitro kinase screening (Kinase HotSpot); format: biochemical; conditions: single dose of 10 µM
# T2 construct: purchased Reaction Biology Corp
# From the text: as §3
# [6] = molecular target: T3, BRAF (V600E) (Homo sapiens, UniProt P15056, V600E); test: In vitro kinase screening (Kinase HotSpot); format: biochemical; conditions: single dose of 10 µM, BRAF (V599E) in Table 6, BRAF (V600E) in text
# T3 construct: purchased Reaction Biology Corp
# From the text: as §3
# [7] = molecular target: T4, CDK2/cyclin E (Homo sapiens, UniProt P24941); test: In vitro kinase screening (Kinase HotSpot); format: biochemical; conditions: single dose of 10 µM
# T4 construct: purchased Reaction Biology Corp
# From the text: as §3
# [8] = molecular target: T5, EGFR (Homo sapiens, UniProt P00533); test: In vitro kinase screening (Kinase HotSpot); format: biochemical; conditions: single dose of 10 µM
# T5 construct: purchased Reaction Biology Corp
# From the text: as §3
# [9] = molecular target: T6, GSK3b (Homo sapiens, UniProt P49841); test: In vitro kinase screening (Kinase HotSpot); format: biochemical; conditions: single dose of 10 µM
# T6 construct: purchased Reaction Biology Corp
# From the text: as §3
# [10] = molecular target: T7, IKKb/IKBKB (Homo sapiens, UniProt O14920); test: In vitro kinase screening (Kinase HotSpot); format: biochemical; conditions: single dose of 10 µM
# T7 construct: purchased Reaction Biology Corp
# T7 sequence (O14920 1-756): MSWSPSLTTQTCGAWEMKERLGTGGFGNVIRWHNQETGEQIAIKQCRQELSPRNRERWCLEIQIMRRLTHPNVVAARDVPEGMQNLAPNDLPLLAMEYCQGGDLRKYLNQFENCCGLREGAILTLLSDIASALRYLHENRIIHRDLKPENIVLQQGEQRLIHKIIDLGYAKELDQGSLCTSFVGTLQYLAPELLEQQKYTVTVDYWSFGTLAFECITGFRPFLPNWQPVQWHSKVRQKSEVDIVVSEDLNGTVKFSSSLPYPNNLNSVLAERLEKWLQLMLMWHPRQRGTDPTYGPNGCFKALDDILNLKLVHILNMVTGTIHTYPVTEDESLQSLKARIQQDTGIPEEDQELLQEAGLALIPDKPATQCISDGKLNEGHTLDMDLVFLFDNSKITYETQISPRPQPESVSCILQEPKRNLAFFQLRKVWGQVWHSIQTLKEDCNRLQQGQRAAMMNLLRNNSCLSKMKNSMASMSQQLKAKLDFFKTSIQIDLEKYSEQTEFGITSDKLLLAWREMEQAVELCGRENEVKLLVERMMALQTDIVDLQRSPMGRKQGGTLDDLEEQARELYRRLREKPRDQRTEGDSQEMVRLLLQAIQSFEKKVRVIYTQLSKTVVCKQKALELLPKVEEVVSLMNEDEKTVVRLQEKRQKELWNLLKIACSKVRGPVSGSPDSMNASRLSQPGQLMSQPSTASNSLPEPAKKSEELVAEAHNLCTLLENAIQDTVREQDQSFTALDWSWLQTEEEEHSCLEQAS
# From the text: as §3
# [11] = molecular target: T8, JNK1 (Homo sapiens, UniProt P45983); test: In vitro kinase screening (Kinase HotSpot); format: biochemical; conditions: single dose of 10 µM
# T8 construct: purchased Reaction Biology Corp
# From the text: as §3
# [12] = molecular target: T9, JNK2 (Homo sapiens, UniProt P45984); test: In vitro kinase screening (Kinase HotSpot); format: biochemical; conditions: single dose of 10 µM
# T9 construct: purchased Reaction Biology Corp
# From the text: as §3
# [13] = molecular target: T10, JNK3 (Homo sapiens, UniProt P53779); test: In vitro kinase screening (Kinase HotSpot); format: biochemical; conditions: single dose of 10 µM
# T10 construct: purchased Reaction Biology Corp
# From the text: as §3
# [14] = molecular target: T11, P38a/MAPK14 (Homo sapiens, UniProt Q16539); test: In vitro kinase screening (Kinase HotSpot); format: biochemical; conditions: single dose of 10 µM, P38a/MAPK14
# T11 construct: purchased Reaction Biology Corp
# From the text: as §3
# [15] = molecular target: T12, ROS/ROS1 (Homo sapiens, UniProt P08922); test: In vitro kinase screening (Kinase HotSpot); format: biochemical; conditions: single dose of 10 µM
# T12 construct: purchased Reaction Biology Corp
# From the text: as §3
# [16] = system: NCI-60 cell line panel; test: NCI-60 single-dose (10 µM) antiproliferative screening, mean over panel; format: cell-based; conditions: single-dose 10 µM
# Description: as §1, §2
# [17] = system: Colo 205 colon cancer cell line; test: NCI-60 single-dose screening; format: cell-based; conditions: Homo sapiens, read-out: per cent inhibition
# Description: as §1, §2
# [18] = system: HCC-116 colon cancer cell line; test: NCI-60 single-dose screening; format: cell-based; conditions: read-out: per cent inhibition
# Description: as §1, §2
# [19] = system: SF-295 CNS cancer cell line; test: NCI-60 single-dose screening; format: cell-based; conditions: Homo sapiens, read-out: per cent inhibition
# Description: as §1, §2
# [20] = system: CNS cancer cell lines; test: NCI five-dose testing, subpanel mean; format: cell-based; conditions: subpanel IV: CNS cancer
# Description: as §1
# [21] = system: Leukaemia cell lines; test: NCI five-dose testing, subpanel mean; format: cell-based; conditions: subpanel I: Leukaemia
# Description: as §1
# [22] = system: breast cancer cell lines; test: NCI five-dose testing, subpanel mean; format: cell-based; conditions: subpanel IX: breast cancer
# Description: as §1
# [23] = system: colon cancer cell lines; test: NCI five-dose testing, subpanel mean; format: cell-based; conditions: subpanel III: colon cancer
# Description: as §1
# [24] = system: melanoma cell lines; test: NCI five-dose testing, subpanel mean; format: cell-based; conditions: subpanel V: melanoma
# Description: as §1
# [25] = system: non-small cell lung cancer cell lines; test: NCI five-dose testing, subpanel mean; format: cell-based; conditions: subpanel II: non-small cell lung cancer
# Description: as §1
# [26] = system: ovarian cancer cell lines; test: NCI five-dose testing, subpanel mean; format: cell-based; conditions: subpanel VI: ovarian cancer
# Description: as §1
# [27] = system: prostate cancer cell lines; test: NCI five-dose testing, subpanel mean; format: cell-based; conditions: subpanel VIII: prostate cancer
# Description: as §1
# [28] = system: renal cancer cell lines; test: NCI five-dose testing, subpanel mean; format: cell-based; conditions: subpanel VII: renal cancer
# Description: as §1
# [29] = system: A498 renal cancer cell line; test: NCI five-dose testing; format: cell-based; conditions: Homo sapiens
# Description: as §1
# [30] = system: HOP-92 non-small cell lung cancer cell line; test: NCI five-dose testing; format: cell-based; conditions: Homo sapiens
# Description: as §1
# [31] = system: HT-29 colon cancer cell line; test: NCI five-dose testing; format: cell-based; conditions: Homo sapiens
# Description: as §1
# [32] = system: K-562 leukaemia cell line; test: NCI five-dose testing; format: cell-based; conditions: Homo sapiens
# Description: as §1
# [33] = system: MDA-MB-468 breast cancer cell line; test: NCI five-dose testing; format: cell-based; conditions: Homo sapiens
# Description: as §1
# [34] = system: OVCAR-4 ovarian cancer cell line; test: NCI five-dose testing; format: cell-based; conditions: Homo sapiens
# Description: as §1
# [35] = system: PC-3 prostate cancer cell line; test: NCI five-dose testing; format: cell-based; conditions: Homo sapiens
# Description: as §1
# [36] = system: SK-MEL-5 melanoma cell line; test: NCI five-dose testing; format: cell-based; conditions: Homo sapiens
# Description: as §1
# [37] = system: U251 CNS cancer cell line; test: NCI five-dose testing; format: cell-based; conditions: Homo sapiens
# Description: as §1
# T12 sequence (P08922 28-2347): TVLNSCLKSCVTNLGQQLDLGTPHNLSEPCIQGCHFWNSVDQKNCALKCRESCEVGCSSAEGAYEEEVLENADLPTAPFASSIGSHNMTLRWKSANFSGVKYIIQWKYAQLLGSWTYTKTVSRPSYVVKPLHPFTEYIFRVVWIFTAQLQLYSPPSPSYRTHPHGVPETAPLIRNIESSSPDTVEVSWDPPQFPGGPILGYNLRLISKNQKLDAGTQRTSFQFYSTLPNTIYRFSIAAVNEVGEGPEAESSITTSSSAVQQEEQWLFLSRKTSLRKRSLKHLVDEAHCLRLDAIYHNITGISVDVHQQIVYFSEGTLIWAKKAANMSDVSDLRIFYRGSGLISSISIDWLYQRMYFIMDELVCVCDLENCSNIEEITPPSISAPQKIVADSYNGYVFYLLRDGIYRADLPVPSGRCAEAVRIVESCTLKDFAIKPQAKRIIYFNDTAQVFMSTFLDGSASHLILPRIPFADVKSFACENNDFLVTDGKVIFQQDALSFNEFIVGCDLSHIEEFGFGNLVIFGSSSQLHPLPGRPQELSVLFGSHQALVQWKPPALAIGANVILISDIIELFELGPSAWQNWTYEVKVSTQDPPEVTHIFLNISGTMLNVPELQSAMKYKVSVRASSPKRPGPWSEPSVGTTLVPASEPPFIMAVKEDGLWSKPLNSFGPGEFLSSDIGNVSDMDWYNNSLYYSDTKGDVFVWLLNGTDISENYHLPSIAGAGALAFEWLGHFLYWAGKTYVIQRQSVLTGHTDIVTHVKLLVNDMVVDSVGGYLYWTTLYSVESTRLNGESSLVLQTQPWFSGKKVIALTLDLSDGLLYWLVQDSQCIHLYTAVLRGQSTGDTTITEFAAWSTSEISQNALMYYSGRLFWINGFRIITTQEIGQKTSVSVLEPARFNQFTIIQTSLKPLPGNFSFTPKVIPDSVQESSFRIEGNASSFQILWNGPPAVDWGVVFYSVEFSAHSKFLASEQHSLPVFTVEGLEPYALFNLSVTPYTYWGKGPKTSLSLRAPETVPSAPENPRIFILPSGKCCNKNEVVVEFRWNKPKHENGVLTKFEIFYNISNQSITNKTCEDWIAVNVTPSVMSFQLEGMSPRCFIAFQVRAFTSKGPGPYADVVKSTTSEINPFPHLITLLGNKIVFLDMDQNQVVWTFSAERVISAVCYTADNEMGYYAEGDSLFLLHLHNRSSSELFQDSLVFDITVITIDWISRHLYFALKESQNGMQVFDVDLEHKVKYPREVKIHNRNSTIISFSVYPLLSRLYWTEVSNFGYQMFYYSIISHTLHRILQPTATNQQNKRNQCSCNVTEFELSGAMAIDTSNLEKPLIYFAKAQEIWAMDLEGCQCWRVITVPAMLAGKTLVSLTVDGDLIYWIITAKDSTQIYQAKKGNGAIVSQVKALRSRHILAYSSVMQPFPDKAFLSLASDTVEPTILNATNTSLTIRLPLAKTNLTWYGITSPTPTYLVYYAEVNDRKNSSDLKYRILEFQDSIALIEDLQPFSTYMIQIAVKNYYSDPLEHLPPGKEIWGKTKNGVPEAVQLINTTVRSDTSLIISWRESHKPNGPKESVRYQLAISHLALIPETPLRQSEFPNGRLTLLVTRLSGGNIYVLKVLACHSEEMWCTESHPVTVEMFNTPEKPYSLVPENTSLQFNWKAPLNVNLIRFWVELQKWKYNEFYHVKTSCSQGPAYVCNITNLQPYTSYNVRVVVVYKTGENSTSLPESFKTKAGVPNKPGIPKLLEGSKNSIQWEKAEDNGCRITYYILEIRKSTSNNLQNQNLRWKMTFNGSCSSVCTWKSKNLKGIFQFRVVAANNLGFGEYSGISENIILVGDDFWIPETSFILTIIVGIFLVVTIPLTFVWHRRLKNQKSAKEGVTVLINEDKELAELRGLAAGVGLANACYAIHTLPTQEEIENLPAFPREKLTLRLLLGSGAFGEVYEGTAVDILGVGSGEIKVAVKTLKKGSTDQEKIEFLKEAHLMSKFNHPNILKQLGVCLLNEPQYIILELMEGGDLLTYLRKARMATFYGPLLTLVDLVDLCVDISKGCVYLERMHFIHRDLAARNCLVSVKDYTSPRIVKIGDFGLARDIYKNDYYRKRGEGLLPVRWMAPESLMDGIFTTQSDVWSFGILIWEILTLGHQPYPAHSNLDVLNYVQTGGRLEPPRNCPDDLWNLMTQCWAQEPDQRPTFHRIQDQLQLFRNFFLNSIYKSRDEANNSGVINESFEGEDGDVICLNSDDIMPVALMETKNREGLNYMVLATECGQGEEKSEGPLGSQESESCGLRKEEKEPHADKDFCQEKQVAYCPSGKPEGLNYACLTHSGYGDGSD
# T2 sequence (P15056 whole entry): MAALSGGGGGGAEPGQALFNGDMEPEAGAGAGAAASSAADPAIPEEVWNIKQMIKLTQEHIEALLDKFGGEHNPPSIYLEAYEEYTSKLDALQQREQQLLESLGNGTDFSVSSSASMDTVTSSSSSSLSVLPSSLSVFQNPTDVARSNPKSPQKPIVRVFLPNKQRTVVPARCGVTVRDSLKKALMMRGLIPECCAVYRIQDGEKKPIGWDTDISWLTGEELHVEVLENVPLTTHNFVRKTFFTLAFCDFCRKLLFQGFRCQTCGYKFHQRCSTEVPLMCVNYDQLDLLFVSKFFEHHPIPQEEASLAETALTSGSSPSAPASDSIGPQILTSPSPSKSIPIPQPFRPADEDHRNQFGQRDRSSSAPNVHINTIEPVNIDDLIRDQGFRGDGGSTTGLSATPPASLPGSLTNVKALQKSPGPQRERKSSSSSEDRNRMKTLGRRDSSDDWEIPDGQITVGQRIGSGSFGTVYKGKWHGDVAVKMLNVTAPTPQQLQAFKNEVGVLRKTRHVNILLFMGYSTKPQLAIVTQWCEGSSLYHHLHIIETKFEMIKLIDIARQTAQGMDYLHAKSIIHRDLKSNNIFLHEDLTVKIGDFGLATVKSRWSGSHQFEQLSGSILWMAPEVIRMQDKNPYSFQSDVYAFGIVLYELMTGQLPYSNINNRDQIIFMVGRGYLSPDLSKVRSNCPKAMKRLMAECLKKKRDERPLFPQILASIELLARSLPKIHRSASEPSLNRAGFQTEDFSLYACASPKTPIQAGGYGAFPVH
# T9 sequence (P45984 whole entry): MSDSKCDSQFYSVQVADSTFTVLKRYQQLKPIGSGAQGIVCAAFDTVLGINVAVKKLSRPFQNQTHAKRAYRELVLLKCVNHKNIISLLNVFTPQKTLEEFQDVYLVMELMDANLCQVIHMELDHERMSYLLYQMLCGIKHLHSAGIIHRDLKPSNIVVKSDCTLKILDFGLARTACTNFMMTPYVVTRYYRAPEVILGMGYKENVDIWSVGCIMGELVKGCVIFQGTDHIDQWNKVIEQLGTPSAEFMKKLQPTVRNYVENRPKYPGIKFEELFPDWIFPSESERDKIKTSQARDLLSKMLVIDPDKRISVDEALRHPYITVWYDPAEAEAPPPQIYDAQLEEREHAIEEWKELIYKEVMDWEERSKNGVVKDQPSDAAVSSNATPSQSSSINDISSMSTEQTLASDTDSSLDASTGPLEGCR
# T3 sequence (P15056 whole entry V600E): as the sequence (P15056 whole entry) above, with V600E counted along it
# T5 sequence (P00533 25-1210): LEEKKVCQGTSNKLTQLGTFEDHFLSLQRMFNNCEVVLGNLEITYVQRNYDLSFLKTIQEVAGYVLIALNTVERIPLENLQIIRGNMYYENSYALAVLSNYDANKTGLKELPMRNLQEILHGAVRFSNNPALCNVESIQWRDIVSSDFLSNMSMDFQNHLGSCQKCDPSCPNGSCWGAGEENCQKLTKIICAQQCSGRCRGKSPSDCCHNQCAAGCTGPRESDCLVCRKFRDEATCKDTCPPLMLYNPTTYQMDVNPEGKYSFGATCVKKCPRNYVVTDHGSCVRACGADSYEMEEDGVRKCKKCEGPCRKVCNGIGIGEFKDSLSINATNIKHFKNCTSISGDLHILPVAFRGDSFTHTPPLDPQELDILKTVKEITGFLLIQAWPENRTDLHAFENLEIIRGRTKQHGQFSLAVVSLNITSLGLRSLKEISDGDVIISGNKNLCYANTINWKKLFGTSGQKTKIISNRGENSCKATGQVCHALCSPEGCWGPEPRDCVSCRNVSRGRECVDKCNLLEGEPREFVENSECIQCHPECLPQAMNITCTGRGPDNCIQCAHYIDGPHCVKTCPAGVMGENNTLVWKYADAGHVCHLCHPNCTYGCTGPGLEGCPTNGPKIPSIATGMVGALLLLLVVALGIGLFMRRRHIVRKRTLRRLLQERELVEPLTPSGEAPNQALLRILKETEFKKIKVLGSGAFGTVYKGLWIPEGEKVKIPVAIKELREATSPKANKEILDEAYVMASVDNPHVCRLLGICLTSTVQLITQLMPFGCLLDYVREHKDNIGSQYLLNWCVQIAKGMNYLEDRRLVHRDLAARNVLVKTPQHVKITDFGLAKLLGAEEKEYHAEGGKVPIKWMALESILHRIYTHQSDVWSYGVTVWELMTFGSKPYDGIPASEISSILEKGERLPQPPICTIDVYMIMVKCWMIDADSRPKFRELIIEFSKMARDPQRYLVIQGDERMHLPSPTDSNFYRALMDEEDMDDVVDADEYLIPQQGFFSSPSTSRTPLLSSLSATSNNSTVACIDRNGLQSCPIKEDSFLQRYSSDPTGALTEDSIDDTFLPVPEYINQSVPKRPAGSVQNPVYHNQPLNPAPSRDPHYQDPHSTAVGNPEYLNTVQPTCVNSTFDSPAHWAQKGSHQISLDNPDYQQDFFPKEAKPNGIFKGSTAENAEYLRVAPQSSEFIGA
# T11 sequence (Q16539 whole entry): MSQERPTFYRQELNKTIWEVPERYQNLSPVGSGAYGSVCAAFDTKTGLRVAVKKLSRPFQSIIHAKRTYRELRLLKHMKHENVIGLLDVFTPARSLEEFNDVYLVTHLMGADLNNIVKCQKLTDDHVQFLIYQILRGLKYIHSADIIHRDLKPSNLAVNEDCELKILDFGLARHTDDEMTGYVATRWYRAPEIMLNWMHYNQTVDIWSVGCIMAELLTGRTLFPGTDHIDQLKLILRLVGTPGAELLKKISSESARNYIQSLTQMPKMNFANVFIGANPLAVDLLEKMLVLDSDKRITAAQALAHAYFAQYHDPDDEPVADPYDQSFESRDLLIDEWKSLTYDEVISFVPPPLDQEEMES
compound,measurement,setting,value
"COc1cccc(-c2nn(-c3ccccc3)cc2-c2ccnc(NCCCNS(=O)(=O)c3ccc(Br)cc3)c2)c1 [Compound 2b, 4-Bromo-N-(3-((4-(3-(3-methoxyphenyl)-1-phenyl-1H-pyrazol-4-yl)pyridin-2-yl)amino)propyl) benzenesulfonamide]",per cent inhibition,[1],83.30%
"COc1cccc(-c2nn(-c3ccccc3)cc2-c2ccnc(NCCCNS(=O)(=O)c3ccc(Cl)cc3)c2)c1 [Compound 2c, 4-Chloro-N-(3-((4-(3-(3-methoxyphenyl)-1-phenyl-1H-pyrazol-4-yl)pyridin-2-yl)amino)propyl) benzenesulfonamide]",per cent inhibition,[2],88.66%
same,per cent inhibition,[3],92.74%
same,Inhibition %,[4],4.53 ± 0.45%
same,Inhibition %,[5],20.87 ± 0.30%
same,Inhibition %,[6],44.20 ± 0.40%
same,Inhibition %,[7],9.80 ± 1.01%
same,Inhibition %,[8],9.20 ± 4.45%
same,Inhibition %,[9],49.31 ± 0.30%
same,Inhibition %,[10],7.79 ± 0.15%
same,Inhibition %,[11],69.19 ± 0.02%
same,Inhibition %,[12],59.68 ± 0.01%
same,Inhibition %,[13],24.23 ± 0.03%
same,Inhibition %,[14],65.73 ± 0.66%
same,Inhibition %,[15],3.40 ± 0.39%
"O=S(=O)(NCCCNc1cc(-c2cn(-c3ccccc3)nc2-c2cccc(O)c2)ccn1)c1ccc(Br)cc1 [Compound 2k, 4-Bromo-N-(3-((4-(3-(3-hydroxyphenyl)-1-phenyl-1H-pyrazol-4-yl)pyridin-2-yl)amino)propyl)benzenesulfonamide]",inhibition at 10 µM,[16]; 60-cancer cell line screening,90.6%
same,number of cell lines with more than 100% inhibition,[16]; NCI-60 panel,13
same,inhibition at 10 µM,[17],168%
same,inhibition at 10 µM,[18],140%
same,inhibition at 10 µM,[19],147%
same,IC50,[20],1.7 µM
same,IC50,[21],1.55 µM
same,IC50,[22],1.11 µM
same,IC50,[23],1.48 µM
same,IC50,[24],1.62 µM
same,IC50,[25],1.96 µM
same,IC50,[26],2.11 µM
same,IC50,[27],2.03 µM
same,IC50,[28],1.89 µM
same,IC50,[29]; A498,0.38 µM
same,LC50 (lethal concentration 50%),"[29]; A498, read-out: LD50 (lethal dose 50)",11.9 µM
same,IC (TGI),"[29]; A498, read-out: TGI (total growth inhibition concentration)",2.8 µM
same,IC50,[30]; HOP-92,1.83 µM
same,IC (TGI),"[30]; HOP-92, HOP-92, read-out: TGI (total growth inhibition concentration)",7.5 µM
same,LD50 (lethal dose 50),"[30]; HOP-92, read-out: LD50 (lethal dose 50)",> 100 µM
same,CC50,"[31]; HT-29, read-out: LD50 (lethal dose 50)",7.1 µM
same,IC50,"[31]; HT-29, read-out: IC50",0.63 µM
same,IC (TGI),"[31]; HT-29, read-out: TGI (total growth inhibition concentration)",2.3 µM
same,CC50,"[32]; K562, read-out: LD50 (lethal dose 50)",> 100 µM
same,IC50,"[32]; K562, K-562",0.44 µM
same,IC (TGI),"[32]; K562, K-562, read-out: TGI (total growth inhibition concentration)",2.8 µM
same,IC50,[33]; MDA-MB-468,1.54 µM
same,CC50,"[33]; MDA-MB-468, read-out: LD50 (lethal dose 50)",> 100 µM
same,IC (TGI),"[33]; MDA-MB-468, read-out: TGI (total growth inhibition concentration)",5.6 µM
same,IC50,[34]; OVCAR-4,1.66 µM
same,LC50 (lethal concentration 50),"[34]; OVCAR-4, read-out: LD50 (lethal dose 50)",> 100 µM
same,IC (TGI),"[34]; OVCAR-4, read-out: TGI (total growth inhibition concentration)",8.6 µM
same,LC50 (lethal concentration 50),"[35]; PC-3, read-out: LD50 (lethal dose 50)",> 100 µM
same,IC50,"[35]; PC-3, read-out: IC50",2.11 µM
same,IC (TGI),"[35]; PC-3, read-out: TGI (total growth inhibition concentration)",7.8 µM
same,IC50,[36]; SK-MEL-5,1.27 µM
same,LC50 (lethal concentration 50),"[36]; SK-MEL-5, read-out: LD50 (lethal dose 50)",5.3 µM
same,IC (TGI),"[36]; SK-MEL-5, read-out: TGI (total growth inhibition concentration)",2.6 µM
same,CC50,"[37]; U-251, read-out: LD50 (lethal dose 50)",19.9 µM
same,IC50,"[37]; U-251, U251, read-out: IC50",1.21 µM
same,IC (TGI),"[37]; U-251, U251, read-out: TGI (total growth inhibition concentration)",4.4 µM
